Where a name gives a salt, the structure may show the parent alone.

For orientation: IC90 means the concentration needed for an effect of 90%.

In one assay the test system is Acinetobacter baumannii ATCC17961. The assay is described as follows: Antimicrobial susceptibility testing: 90% growth inhibitory concentration (IC90) determination. The format is cell-based. As to conditions: Acinetobacter baumannii ATCC17961; Iso-Sensitest broth; growth by OD 600 nm over 16 h; 35±2° C.; read-out: ATCC 17961 IC90. In a few lines:
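Twofold serial dilutions (e.g. 50 to 0.097 μM final) in Iso-Sensitest broth, inoculated at ~5×10^(5) CFU/ml, incubated at 35±2° C. OD600 read every 20 min over 16 h; IC90 derived from growth inhibition during logarithmic growth.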
For the compound `Cn1c(-c2ccc(OC(F)F)c(F)c2Cl)cnc1C(=O)Nc1ccc(C(=O)N2CCN(C(=O)[C@@H]3C[C@@H](O)C[N+]3(C)C)CC2)c(Cl)c1` [Example B53], the IC90 was found to be 91 nM.
For the compound `COc1ccc(-c2cnc(C(=O)Nc3ccc(C(=O)N[C@H]4[C@@H]5CN(C(=O)[C@@H]6C[C@@H](O)C[N+]6(C)C)C[C@@H]54)c(Cl)c3)n2C)c(F)c1F` [Example B54, N-[3-chloro-4-[(exo)-3-[(2 S,4R)-4-hydroxy-1,1-dimethyl-pyrrolidin-1-ium-2-carbonyl]-3-azabicyclo[3.1.01 hexan-6-yl]carbamoyl]phenyl]-5-(2,3-difluoro-4-methoxy-phenyl)-1-methyl-imidazole-2-carboxamide formate], the concentration for an effect of 90% (IC90) was determined as 350 nM.
The same measure, in the same setting: under `COc1ccc(-c2cnc(C(=O)Nc3ccc(C(=O)N[C@H]4[C@@H]5CN(C(=O)N[C@@H]6C[N+](C)(C)C[C@H]6O)C[C@@H]54)c(Cl)c3)n2C)c(F)c1F` [Example B55, (exo)-6-[[2-chloro-4-[[5-(2,3-difluoro-4-methoxy-phenyl)-1-methyl-imidazole-2-carbonyl]amino]benzoyl]amino]-N-[(trans)-4-hydroxy-1,1-dimethyl-pyrrolidin-1-ium-3-yl]-3-azabicyclo[3.1.0]hexane-3-carboxamide formate] stands 150 nM; under `Cn1c(-c2ccc(OCF)c(F)c2F)cnc1C(=O)Nc1ccc(C(=O)N2CCN(C(=O)C[N+](C)(C)C)CC2)c(Cl)c1` [Example B56, [2-[4-[2-chloro-4-[[5-[2,3-difluoro-4-(fluoromethoxy)phenyl]-1-methyl-imidazole-2-carbonyl]amino]benzoyl]piperazin-1-yl]-2-oxo-ethyl]-trimethyl-ammonium; formate], 61 nM.
On the same count and under the same terms, under `Cn1c(-c2ccc(OC(F)F)c(F)c2Cl)cnc1C(=O)Nc1ccc(C(=O)N2CCN(C(=O)C3CC[N+](C)(CC(N)=O)CC3)CC2)c(Cl)c1` (centres unmarked) [Example C1, N-[4-[4-[1-(2-Amino-2-oxo-ethyl)-1-methyl-piperidin-1-ium-4-carbonyl]piperazine-1-carbonyl]-3-chloro-phenyl]-5-[2-chloro-4-(difluoromethoxy)-3-fluoro-phenyl]-1-methyl-imidazole-2-carboxamide;formate] stands 23 nM.
For the compound `Cn1c(-c2ccc(OC(F)F)c(F)c2F)cnc1C(=O)Nc1ccc(C(=O)N2CCN(C(=O)C3CC[N+](C)(CC(N)=O)CC3)CC2)c(Cl)c1` (centres unmarked) [Example C2, N-[4-[4-[1-(2-amino-2-oxo-ethyl)-1-methyl-piperidin-1-ium-4-carbonyl]-piperazine-1-carbonyl]-3-chloro-phenyl]-5-[4-(difluoro-methoxy)-2,3-difluoro-phen-yl]-1-methyl-imidazole-2-carboxamide; formate], the IC90 amounted to 34 nM.
The same measure, in the same setting: under `COc1ccc(-c2cnc(C(=O)Nc3ccc(C(=O)N4CCN(C(=O)C5CC[N+](C)(CC(N)=O)CC5)CC4)c(Cl)c3)n2C)c(Cl)c1F` (centres unmarked) [Example C3, N-[4-[4-[1-(2-amino-2-oxo-ethyl)-1-methyl-piperidin-1-ium-4-carbonyl]-piperazine-1-carbonyl]-3-chloro-phenyl]-5-(2-chloro-3-fluoro-4-meth-oxy-phenyl)-1-methyl-imid-azole-2-carbox-amide; formate] stands 57 nM.
On the same count and under the same terms, under `COc1ccc(-c2cnc(C(=O)Nc3ccc(C(=O)N4CCN(C(=O)C5CC[N+](C)(CC(N)=O)CC5)CC4)c(Cl)c3)n2C)c(F)c1F` (centres unmarked) [Example C5, N-[4-[4-[1-(2-amino-2-oxo-ethyl)-1-methyl-piperidin-1-ium-4-carbonyl]-piperazine-1-carbonyl]-3-chloro-phenyl]-5-(2,3-difluoro-4-methoxy-phenyl)-1-meth-yl-imidazole-2-carboxamide; formate] stands 73 nM; under `COc1ccc(-c2cnc(C(=O)Nc3ccc(C(=O)N4CCN(C(=O)C5CCN(C(=O)C[N+](C)(C)C)CC5)CC4)c(Cl)c3)n2C)c(F)c1F` [Example C6, [2-[4-[4-[2-chloro-4-[5-(2,3-difluoro-4-methoxy-phen-yl)-1-methyl-imidazole-2-carbonyl]amino]-benzoyl]piper-azine-1-carbon-yl]-1-piperidyl]-2-oxo-ethyl]-trimethyl-ammonium; formate], 160 nM.
Same read-out and setting: in the case of `COc1ccc(-c2cnc(C(=O)Nc3ccc(C(=O)N4CCN(C(=O)C5CCN(C(=O)C[N+](C)(C)CC(N)=O)CC5)CC4)c(Cl)c3)n2C)c(F)c1F` [Example C7, (2-amino-2-oxo-ethyl)-[2-[4-[4-[2-chloro-4-[[5-(2,3-difluoro-4-methoxy-phenyl)-1-meth-yl-imidazole-2-carbonyl]amino]-benzoyl]piper-azine-1-carbon-yl]-1-piperidyl]-2-oxo-ethyl]-dimethyl-ammo-nium; formate] it was 250 nM.
For the compound `COc1ccc(-c2cnc(C(=O)Nc3ccc(C(=O)N4CCN(C(=O)C5CC[N+](C)(CC(=O)O)CC5)CC4)c(Cl)c3)n2C)c(F)c1F` (centres unmarked) [Example C8, 2-[4-[4-[2-chloro-4-[[5-(2,3-difluoro-4-methoxy-phen-yl)-1-methyl-imidazole-2-carbonyl]amino]-benzoyl]piper-azine-1-carbon-yl]-1-methyl-piperidin-1-ium-1-yl]acetic acid; formate], the IC90 was 640 nM.
The same measure, in the same setting: in the case of `Cn1c(-c2ccc(OC(F)F)c(F)c2Cl)cnc1C(=O)Nc1ccc(C(=O)N2CCN(C(=O)C3CC[N+](C)(CCN)CC3)CC2)c(Cl)c1` (centres unmarked) [Example C12, N-[4-[4-[1-(2-aminoethyl)-1-methyl-piperidin-1-ium-4-carbon-yl]piperazine-1-carbonyl]-3-chloro-phenyl]-5-[2-chloro-4-(difluorometh-oxy)-3-fluoro-phenyl]-1-methyl-imidazole-2-carboxamide; formic acid; formate] it was 43 nM; in that of `Cn1c(-c2ccc(OC(F)F)c(F)c2F)cnc1C(=O)Nc1ccc(C(=O)N2CCN(C(=O)C3CC[N+](C)(CC4CNC4)CC3)CC2)c(Cl)c1` (centres unmarked) [Example C13, N-[4-[4-[1-(azet-idin-3-ylmeth-yl)-1-methyl-piper-idin-1-ium-4-carbonyl]piper-azine-1-carbon-yl]-3-chloro-phen-yl]-5-[4-(difluoro-methoxy)-2,3-difluoro-phenyl]-1-methyl-imid-azole-2-carbox-amide; 2,2,2-trifluoroacetate; 2,2,2-trifluoro-acetic acid], 73 nM.
With `Cn1c(-c2ccc(OC(F)F)c(F)c2F)cnc1C(=O)Nc1ccc(C(=O)N2CCN(C(=O)C3CC[N+](C)(CC4CCNC4)CC3)CC2)c(Cl)c1` (centres unmarked) [Example C14, N-[3-chloro-4-[4-[1-methyl-1-(pyrrolidin-3-yl-methyl)piperidin-1-ium-4-carbon-yl]piperazine-1-carbonyl]phenyl]-5-[4-(difluoro-methoxy)-2,3-difluoro-phenyl]-1-methyl-imid-azole-2-carbox-amide; formic acid; formate], the 90% effect concentration (IC90) came out at 49 nM.
Still for that read-out and setting: under `Cn1c(-c2ccc(OC(F)F)c(F)c2Cl)cnc1C(=O)Nc1ccc(C(=O)N2CCN(C(=O)C3CC[N+](C)(CC4CNC4)CC3)CC2)c(Cl)c1` (centres unmarked) [Example C15, N-[4-[4-[1-(azetidin-3-yl-methyl)-1-meth-yl-piperidin-1-ium-4-carbonyl]-piperazine-1-car-bonyl]-3-chloro-phenyl]-5-[2-chloro-4-(difluoro-methoxy)-3-fluoro-phenyl]-1-methyl-imidazole-2-carboxamide; formic acid; formate] stands 73 nM.

Still in this assay, the particulars now being: Acinetobacter baumannii, ATCC17961, 16 h, read-out: ATCC 17961 IC90, Acinetobacter baumannii ATCC17961; Iso-Sensitest broth; growth by OD 600 nm over 16 h; 35±2° C.
Take `COc1ccc(-c2cnc(C(=O)Nc3ccc(C(=O)N4CCN(C(=O)[C@@H]5[C@@H](O)[C@@H](O)C[N+]5(C)C)CC4)c(Cl)c3)n2C)c(F)c1F` [Example B50, N-[3-chloro-4-[4-[(2S,3R,4S)-3,4-dihydroxy-1,1-dimethyl-pyrrolidin-1-ium-2-carbonyl]piperazine-1-carbonyl]phenyl]-5-(2,3-difluoro-4-methoxy-phenyl)-1-methyl-imidazole-2-carboxamide formate]: the IC90 is 250 nM.
Regarding `COc1ccc(-c2cnc(C(=O)Nc3ccc(C(=O)N4CCN(C(=O)[C@@H]5C[C@@H](O)C[N+]5(C)C)CC4)c(Cl)c3)n2C)c(F)c1C#N` [Example B51, N-[3-chloro-4-[4-[(2S,4R)-4-hydroxy-1,1-dimethyl-pyrrolidin-1-ium-2-carbonyl]piperazine-1-carbonyl]phenyl]-5-(3-cyano-2-fluoro-4-methoxy-phenyl)-1-methyl-imidazole-2-carboxamide; formate], the 90% effect concentration (IC90) came to 540 nM.
As for `COc1ccc(-c2cnc(C(=O)Nc3ccc(C(=O)N4CCN(C(=O)[C@@H]5C[C@@H](O)C[N+]5(C)C)CC4)c(Cl)c3)n2C)c(F)c1C(F)(F)F` [Example B52, N-[3-chloro-4-[4-[(2S,4R)-4-hydroxy-1,1-dimethyl-pyrrolidin-1-ium-2-carbonyl]piperazine-1-carbonyl]phenyl]-5-[2-fluoro-4-methoxy-3-(trifluoromethyl)phenyl]-1-methyl-imidazole-2-carboxamide; formate], the IC90 came to 520 nM.
The same measure, in the same setting: in the case of `Cn1c(-c2ccc(OC(F)F)c(F)c2Cl)cnc1C(=O)Nc1ccc(C(=O)N2CCN(C(=O)C3CC[N+](CC(N)=O)(CC(N)=O)CC3)CC2)c(Cl)c1` [Example C9, N-[4-[4-[1,1-bis(2-amino-2-oxo-ethyl)piper-idin-1-ium-4-carbonyl]piper-azine-1-carbon-yl]-3-chloro-phenyl]-5-[2-chloro-4-(difluorometh-oxy)-3-fluoro-phenyl]-1-methyl-imid-azole-2-carbox-amide; formate] it was 120 nM; in that of `Cn1c(-c2ccc(OC(F)F)c(F)c2Cl)cnc1C(=O)Nc1ccc(C(=O)N2CCN(C(=O)C3CC[N+](CC(N)=O)(CC4CNC4)CC3)CC2)c(Cl)c1` (centres unmarked) [Example C10], 100 nM.

(Values after patent publication US20240376073A1 (Hoffmann-La Roche Inc., priority 2021, published 2024).)
